Test results reported in patent EP4729516A1, “S[…] DERIVATIVE, INTERMEDIATE, PREPARATION METHOD THEREFOR AND USE THEREOF” (Jiangsu NHWA Pharmaceutical Co., Ltd, priority 2023, dated 2024).
Structures can show the parent of a compound that is named as a salt. Where two headings read alike, the source gives them in different places.

What was measured:
[1] = target: T1, α1A receptor (Homo sapiens, UniProt P35348); assay: Competitive receptor binding assay, α1A (3H-Prazosin, CHO-K1-α1A membranes)
T1 construct: expressed in transfected cells; host or cells: CHO-K1
T1 sequence (P35348 1-466): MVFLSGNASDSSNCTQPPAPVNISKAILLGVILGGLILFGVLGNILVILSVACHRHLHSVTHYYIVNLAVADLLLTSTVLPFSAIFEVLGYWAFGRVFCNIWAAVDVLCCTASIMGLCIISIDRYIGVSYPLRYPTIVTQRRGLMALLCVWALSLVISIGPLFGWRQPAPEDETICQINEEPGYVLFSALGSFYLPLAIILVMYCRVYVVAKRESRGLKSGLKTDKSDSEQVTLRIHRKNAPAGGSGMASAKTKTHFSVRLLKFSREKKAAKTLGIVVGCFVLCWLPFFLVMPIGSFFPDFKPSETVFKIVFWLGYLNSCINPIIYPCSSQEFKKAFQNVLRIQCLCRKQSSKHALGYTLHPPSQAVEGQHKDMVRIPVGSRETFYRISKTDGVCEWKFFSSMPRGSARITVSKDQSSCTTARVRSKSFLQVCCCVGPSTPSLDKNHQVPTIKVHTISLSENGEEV
Experimental: (§1) Test sample (compound): The theoretical sample weighing amount was calculated according to the designed concentration and the required volume. Generally, the test sample was dissolved in DMSO to an initial preparation dose of 5.0 × 10^-3 M, and the solution was sequentially diluted with DMSO to 5.0 × 10^-4 M-5.0 × 10^-9 M; the diluted DMSO solution was diluted with Buffer to a working concentration of 5.0 × 10^-5 M-5.0 × 10^-11 M; and the final concentration of DMSO in the working solution was 1% (the final concentration of DMSO in the reaction system was 0.2%). The test sample was prepared and then stored at 4 °C. After the test was completed, the test sample was discarded.
(§2) CHO-K1-α1A, CHO-K1-α2A, CHO-K1-α2B, and CHO-K1-α2C cells were taken out of a refrigerator at -80 °C, thawed naturally, and centrifuged at 2000 g at 4 °C for 10 min. The supernatant was discarded, and the pellet was collected. […] The supernatant was discarded, and the buffer was added again. […] The supernatant was discarded, and the pellet was collected and stored at -80 °C.
(§3) Table 1. Experimental conditions for radioactive binding
(§4) Step 1: 50 µL of a vehicle (1% DMSO) was added to a total binding tube (TB), 50 µL of a non-labeled substance (with a final concentration of 1.0 × 10^-5 M) was added to a non-specific binding tube (NB), and 50 µL of a test compound was added to each test compound tube (CB).
(§5) Step 2: 100 µL of a buffer was added to each reaction tube.
(§6) Step 3: The prepared membrane was suspended in a buffer to give a membrane suspension with a corresponding concentration for later use.
(§7) Step 4: 50 µL of the corresponding radioligand was added to each reaction tube.
(§8) Step 5: 50 µL of the membrane suspension was added to each reaction tube.
(§9) Step 6: Each reaction tube was incubated according to the incubation conditions. After the reaction was completed, the binding ligands were rapidly filtered under reduced pressure. The UniFilter GF/C plate was saturated with a 0.5% PEI solution 1 h in advance, fully washed with an ice-cold Tris-HCl buffer, filtered under vacuum, then placed into a thermostatic dryer, and dried for 30 min. The filter plate was taken out, and a MICROSCINT PS scintillation solution was added at 40 µL/well.
(§10) Step 7: The scintillation vial was put into a liquid scintillation counter for counting.
(§11) Based on the effect values of the compound samples at different concentration test points, the GraphPad Prism software was used to fit the action curves of the compound samples to the receptors, and the Ki values were calculated.

[2] = target: T2, α2B receptor (Homo sapiens, UniProt P18089); assay: Competitive receptor binding assay, α2B (3H-RX821002, CHO-K1-α2B membranes)
T2 construct: expressed in transfected cells; host or cells: CHO-K1
T2 sequence (P18089 1-450): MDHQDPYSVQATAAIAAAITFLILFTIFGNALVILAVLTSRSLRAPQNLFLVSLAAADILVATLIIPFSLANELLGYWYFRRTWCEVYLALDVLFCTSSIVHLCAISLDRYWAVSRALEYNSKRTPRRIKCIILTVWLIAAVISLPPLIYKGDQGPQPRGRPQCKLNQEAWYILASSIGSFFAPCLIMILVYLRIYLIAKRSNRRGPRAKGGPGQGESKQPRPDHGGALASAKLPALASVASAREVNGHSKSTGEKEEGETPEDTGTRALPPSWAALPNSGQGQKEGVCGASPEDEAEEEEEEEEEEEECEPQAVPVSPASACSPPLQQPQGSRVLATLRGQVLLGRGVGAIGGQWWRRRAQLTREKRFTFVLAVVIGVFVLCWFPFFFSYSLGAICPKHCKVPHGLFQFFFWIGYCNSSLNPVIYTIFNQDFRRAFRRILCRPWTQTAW
Experimental: as §1, §2, §3, §4, §5, §6, §7, §8, §9, §10, §11

[3] = target: T3, α2C receptor (Homo sapiens, UniProt P18825); assay: Competitive receptor binding assay, α2C (3H-RX821002, CHO-K1-α2C membranes)
T3 construct: expressed in transfected cells; host or cells: CHO-K1
T3 sequence (P18825 1-462): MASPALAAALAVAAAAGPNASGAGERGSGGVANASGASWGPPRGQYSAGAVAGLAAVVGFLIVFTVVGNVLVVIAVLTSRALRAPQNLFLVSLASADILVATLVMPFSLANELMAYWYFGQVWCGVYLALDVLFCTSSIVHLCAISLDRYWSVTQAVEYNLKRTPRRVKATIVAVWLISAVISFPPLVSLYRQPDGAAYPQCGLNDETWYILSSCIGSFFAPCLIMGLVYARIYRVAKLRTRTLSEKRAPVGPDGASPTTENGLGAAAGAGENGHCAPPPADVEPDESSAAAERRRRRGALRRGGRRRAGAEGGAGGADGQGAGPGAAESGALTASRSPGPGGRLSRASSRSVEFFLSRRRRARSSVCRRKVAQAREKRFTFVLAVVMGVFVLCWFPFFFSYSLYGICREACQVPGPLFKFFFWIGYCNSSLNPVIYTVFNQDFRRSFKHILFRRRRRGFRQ
Experimental: as §1, §2, §3, §4, §5, §6, §7, §8, §9, §10, §11

[4] = target: T4, α1A adrenoceptor (Homo sapiens, UniProt P35348); assay: Agonist screening mode IP-One assay, 293-α1A cells; type: cell-based
T4 construct: host or cells: 293
T4 sequence (P35348 1-466): T1 sequence (P35348 1-466)
Experimental: (§12) The cells were centrifuged at 1000 rpm for 5 min, and the supernatant was discarded. 3 mL of PBS was added, and the mixture was gently pipetted to be mixed well. The cells were centrifuged again at 1000 rpm for 5 min, and the supernatant was discarded. […] After shaking, the assay plates were left to stand at room temperature for 60 min. • (8) Experimental readings: The plate was read on Envision, readings from the 665 nm and 615 nm channels were taken, and the ratio of 665 nm/615 nm readings was calculated.

[5] = target: T5, α2B adrenoceptor (Homo sapiens, UniProt P18089); assay: Agonist screening mode IP-One assay, CHO-α2B/Gα15 cells; type: cell-based
T5 construct: host or cells: CHO
T5 sequence (P18089 1-450): T2 sequence (P18089 1-450)
Experimental: as §12

[6] = target: T6, α2C adrenoceptor (Homo sapiens, UniProt P18825); assay: Agonist screening mode IP-One assay, CHO-α2C/Gα15 cells; type: cell-based
T6 construct: host or cells: CHO
T6 sequence (P18825 1-462): T3 sequence (P18825 1-462)
Experimental: as §12

[7] = Ki, CHO-K1-α1A membranes, 3H-Prazosin, read-out: Binding α1A
[8] = Ki, CHO-K1-α2B membranes, 3H-RX821002, read-out: Binding α2B
[9] = Ki, CHO-K1-α2C membranes, 3H-RX821002, read-out: Binding α2C

| SMILES | Ki [1, 7] [nM] | Ki [2, 8] [nM] | Ki [3, 9] [nM] | EC50 [4] [nM] | EC50 [5] [nM] | EC50 [6] [nM] | Ki [1] [nM] | Ki [2] [nM] | Ki [3] [nM] |
| --- | --- | --- | --- | --- | --- | --- | --- | --- | --- |
| c1cc2c(c(Cc3c[nH]cn3)c1)SCCC2 [Compound 1, 4-[1-(Thiochroman-8-yl)methyl]-1H-imidazole] | 67.9 | 59.1 | 29.3 | 3.16 | 4.09 | 15.3 |  |  |  |
| CC(c1c[nH]cn1)c1cccc2c1SCCC2 (stereo not drawn) [Compound 2, 4-(1-[Thiochroman-8-yl)ethyl]-1H-imidazole] | 91.2 | 11.7 | 13.8 | 5.32 | 3.03 | 18.4 |  |  |  |
| CC(c1c[nH]cn1)c1cccc2c1CC2 (stereo not drawn) [Compound 3, 4-(1-(Bicyclo[4.2.0]octa-1(6),2,4-trien-2-yl)ethyl)-1H-imidazole] |  |  |  | 57 | 5.51 | 191 | 1130 | 62.3 | 26.1 |
| CC(c1c[nH]cn1)c1cccc2c1CCCC2 (stereo not drawn) [Compound 4, 4-(1-(5,6,7,8-Tetrahydronaphthalen-1-yl)ethyl)-1H-imidazole] |  |  |  | 25.1 | 54.4 | 278 | 2050 | 64.6 | 46.1 |
| CC(c1c[nH]cn1)c1cccc2c1C=CC2 (stereo not drawn) [Compound 8, 4-[1-(1H-Inden-4-yl)ethyl]-1H-imidazole] |  |  |  | 21.8 | 17.7 | 9.89 | 1130 | 37.7 | 18.9 |
| CC(c1c[nH]cn1)c1cccc2c1OCC2 (stereo not drawn) [Compound 10, 4-[1-(2,3-Dihydrobenzofuran-7-yl)ethyl]-1H-imidazole] |  |  |  | 24.1 | 1.66 | 3.99 | 766 | 6.05 | 6.44 |
| C[C@H](c1c[nH]cn1)c1cc(F)cc2c1C=CC2 [Compound 11-b, 4-[(1S)-1-(6-fluoro-1H-inden-4-yl)ethyl]-1H-imidazole] |  |  |  | 36.8 | 2.55 | 0.87 | 671 | 54.8 | 23.8 |
| CC(c1c[nH]cn1)c1cccc2c1C=CC2(C)C (stereo not drawn) [Compound 17, 4-[1-(1,1-Dimethyl-1H-inden-4-yl)ethyl]-1H-imidazole] |  |  |  | 104 | 6.59 | 134 | > 10000 | 244 | 594 |
| C[C@H](c1c[nH]cn1)c1cccc2c1CCC2 [Compound 31-b, (S)-4-[1-(2,3-dihydro-1H-inden-4-yl)ethyl]-1H-imidazole] |  |  |  | 7.94 | 1.08 | 1.78 | 424 | 32.9 | 10.8 |
| CC1Cc2cccc(C(C)c3c[nH]cn3)c2O1 (stereo not drawn) [Compound 32, 4-[1-(2-Methyl-2,3-dihydrobenzofuran-7-yl)ethyl]-1H-imidazole] |  |  |  | 4.73 | 2.23 | 8.13 | 137 | 28.1 | 26.1 |
| C[C@H](c1c[nH]cn1)c1cc(F)cc2c1C(=O)CC2 [Compound 38-b, (S)-7-(1-(1H-imidazol-4-yl)ethyl)-5-fluoro-2,3-dihydro-1H-inden-1-one] | 3160 | 49.1 | 36.4 | 9.75 | 3.84 | 2.21 |  |  |  |
| Cc1cccc([C@H](C)c2cnc[nH]2)c1C [Dexmedetomidine hydrochloride, reference compound] | 593 | 3.66 | 7.34 | 9.55 | 0.96 | 2.05 |  |  |  |
